Measurements published in patent US20150374784A1, “COMPOSITIONS AND METHODS FOR REDUCING GERM CELL DEATH” (Los Angeles Biomedical Research Institute at Harbor-UCLA …, priority 2014, published 2015).
“And” between values parts separate entries of the source, which are not always exact repeats. Identical values can stand only once.

Tests used:
Leydig cells = assay: Leydig cell depletion and testosterone levels in rats; assay type: in vivo, rat; settings: for intratesticular testosterone levels / serum testosterone levels: rats, EDS 80 mg/kg, CP 70 mg/kg BW, HN 40 mg/kg BW, with or without EDS pre-treatment
male germ cells [1] = assay type: in vivo, mouse
Description: (§1) For the HN analog experiments, male mice were divided into seven groups (n=4-5 per group) and received one of the following treatments and sacrificed after 24 hours: 1) vehicle (control); 2) a single intra-peritoneal (IP) injection of HN peptide [HN, 40 mg/Kg body weight (BW)]; 3) a single IP injection of CP (CP, 200 mg/Kg BW); 4) IP injection of CP and HN (CP+HN); 5) a single IP injection of each HN analog (HNG 5 mg/Kg BW, HNG-F6A 5 mg/Kg BW, HN-S7A 40 mg/Kg BW, HN-C8P 40 mg/Kg BW, or HN-L12A 40 mg/Kg BW); 6) IP injection of CP and each HN analog (CP+HNG, HNG-F6A, HN-S7A, HN-C8P, or HN-L12A); and 7) IP injection of CP+HN+HN analog (HN-S7A, HN-C8P, or HN-L12A; to assess whether the analogs has enhancing or inhibitory effect on HN).
(§2) To facilitate testicular fixation by using a whole-body perfusion technique, all animals were injected with heparin (130 IU/100 g BW, IP) 15 min before a lethal injection of sodium pentobarbital (200 mg/kg BW, IP) (Lue Y H, et al., 1999). One testis was removed and weighed after perfusion with saline. Portions of testicular parenchyma were snap frozen in liquid nitrogen, and stored at −80 C for Western blotting. The other testis was fixed by vascular perfusion with Bouin's solution, and processed with routine paraffin embedding for in situ detection of apoptosis.
Detection of apoptotic cells was performed in Bouin's′-fixed, paraffin-embedded testicular sections by the terminal deoxynucleotidyl transferase (TdT)-mediated deoxy-UTP nick end labeling (TUNEL) technique (Sinha Hikim A P, et al., 1997) using an ApopTag-peroxidase kit (Chemicon International, Inc., Temecula, Calif.). Enumeration of the Sertoli cell nuclei with distinct nucleoli and apoptotic germ cell population was quantified at stages I-IV (early stages), stages VII-VIII (middle stages) and stages XI-XII (late stages) of the seminiferous epithelial cycle using an Olympus BH-2 microscope (New Hyde Park, N.Y.). Stages were identified according to the criteria proposed by Russell et al for paraffin sections (Russell L, 1977). The rate of germ cell apoptosis (apoptotic index, AI) was expressed as the number of apoptotic germ cells per Sertoli cells (Sinha Hikim A P, et al., 1997).

male germ cells [2] = assay type: in vivo, mouse; settings: for germ cell apoptosis in testicular cross sections (TUNEL) compared to control: 24 hours after IP injection
Description: Young adult mice (12-13 weeks) were randomly divided into 4 groups with 4 or 5 mice per group and received an IP injection: control (Con) (saline), HN (40 mg/Kg BW), CP (200 mg/Kg BW), and the combination of CP+HN. These experiments were repeated four times. In the CP+HN group, mice received an injection of HN followed by an injection of CP about 15 minutes later. Twenty-four hours after injections animals were sacrificed using 5% pentobarbital (200 mg/kg BW) IP injection. Blood was collected and one testis was removed, weighed and frozen in liquid nitrogen. The mouse was next perfused with saline and then subsequently perfuse-fixed with Bouin's solution as previously described and apoptosis was assessed by TUNEL assay (Lue, et al., 2009).
For detection of apoptosis in testicular sections, the paraffin embedded testis tissue was cut into 5 micron sections and stained with the TdT-mediated dUTP nick-end labeling assay (TUNEL Apoptosis Detection Kit, Millipore, Billerica, Mass.) to detect apoptosis of germ cells in the testis (Lue, et al., 2009). Testicular sections assayed by TUNEL were examined under a light microscope and the apoptotic germ cells were blindly and manually counted. The seminiferous tubules in the testis section under the microscope were grouped as stages IX-IV (early-late stages of spermatogenesis) and V-VIII (middle stages of spermatogenesis). Germ cell apoptosis was quantified as the number of seminiferous tubules containing apoptotic spermatogonia, spermatoctyes, round spermatids and spermatozoa per 100 seminiferous tubules (Drumond, et al., 2011).
Statistical analyses of the majority of the data was performed using the Sigma Plot 12 program (Jandel, San Rafael, Calif.). The data were analyzed by using t-tests and one-way ANOVA followed by Student-Newman-Keuls Method. P-values of less than 0.05 (P<0.05) were considered significant. In in vivo experiments when the testicular sections were assessed for apoptosis, a mixed model used the percentage of tubules with apoptosis as the dependent variable. Two different stages (Early or Late Vs Middle) and four treatment groups (Control, HN CP, CP+HN) as well as the interaction term were included in the model as independent variables. Persons who did the experiment were considered as a random effect to accommodate a potential heterogeneous variance in the model. Least Square Means and their differences were computed and tested using the Tukey's adjustment for multiple pair-wise comparisons. A residual analysis was done to check for the model assumptions. All the data analysis was carried out using SAS 9.3 (Cary, N.C. USA).

STAT3 = STAT3 phosphorylation in testis by western blot; assay type: in vivo, mouse; settings: testis homogenates; for STAT3 phosphorylation (phosphorylated STAT3/STAT3) compared with control: treatment alone
Description: as §1, §2
Western blotting was performed as described previously (Jia Y, et al., 2009). In brief, proteins were denatured and separated by sodium dodecyl sulfate-polyacrylamide gel electrophoresis (SDS-PAGE) system (Invitrogen, Carlsbad, Calif.). After transferring, the Immuno-blot PVDF Membrane (Bio-Rad, Hercules, Calif.) was blocked for 1 h and then probed using anti-STAT3 or anti-pSer727 STAT3 (Cell signaling Technology, Inc., Beverly, Mass.) overnight at 4 C with constant shaking. After washing, membrane was then incubated with an anti-mouse (for STAT3 antibody, Santa Cruz Biotechnology, Santa Cruz, Calif.) or anti-rabbit (for pSer727 STAT3 antibody, Amersham Biosciences, Piscataway, N.J.) IgG-HRP secondary antibody. All antibodies were diluted in blocking buffer. For immunodetection, membrane was incubated with enhanced chemiluminescence solutions per the manufacturer's specifications (Amersham Biosciences, Piscataway, N.J.), and exposed to Hyperfilm ECL (Denville Scientific Inc., Metuchen, N.J.).

male germ cells [3] = system: male germ cells
[4] = EDS 80 mg/kg IP 3 days before, CP 70 mg/kg BW
[5] = rats not pre-treated with EDS, CP 70 mg/kg BW IP, 12 hours

## O=P1(N(CCCl)CCCl)NCCCO1 (stereo not shown) [CP, cyclophosphamide monohydrate]
Leydig cells
  intratesticular testosterone levels: had no significant effects
  serum testosterone levels: had no significant effects
Male germ cells [1]; stages VII-VIII, 24 hours after single IP, CP 200 mg/Kg, HN, HN-S7A 40 mg/Kg, HNG, HNG-F6A 5 mg/Kg, monohydrate
  Apoptotic Index (AI), apoptotic germ cells per Sertoli cell, middle stages: 0.25±0.03 and 0.33±0.03
Male germ cells [2]; HN 40 mg/Kg, CP 200 mg/Kg
  germ cell apoptosis in testicular cross sections (TUNEL) compared to control: significantly increased germ cell apoptosis
Male germ cells [2]; early-late stages of spermatogenesis, 24 hours, CP 200 mg/Kg, HN 40 mg/Kg
  germ cell apoptosis, percentage of tubules with apoptotic cells, early-late stages: significantly increased germ cell apoptosis
Male germ cells [2]; middle stages (V-VIII), 24 hours, CP 200 mg/Kg, HN 40 mg/Kg
  germ cell apoptosis, percentage of tubules with apoptotic cells, middle stages: significant increase in apoptosis
STAT3
  STAT3 phosphorylation (phosphorylated STAT3/STAT3) compared with control: suppressed Ser727-phosphorylated STAT3 in testes
Male germ cells [3]; CP 70 mg/kg BW
  CP induced germ cell apoptosis with versus without EDS pre-treatment, early and late stages: significantly lower in EDS pre-treated rats
Male germ cells [3]; [4]
  germ cell apoptosis at early (I-VI) and late (IX-XIV) stages, EDS pre-treated rats, compared to control: did not significantly increased germ cell apoptosis
  germ cell apoptosis in middle (VII-VIII) stages, EDS pre-treated rats: did not additively increased germ cell apoptosis caused by EDS treatment
Male germ cells [3]; [5]
  germ cell apoptosis at early (I-VI) and late (IX-XIV) stages compared to control: significantly increased germ cell apoptosis
  germ cell apoptosis in the middle (VII-VIII) stages: did not increase apoptosis in the middle (VII-VIII) stages

## MAPRGFSCLLLLTSEIDLPVKRRA [HN]
Leydig cells; HN administered 3 days after EDS pre-treatment
  EDS-induced Leydig cell loss: did not reverse the EDS-induced Leydig cell loss
Leydig cells
  intratesticular testosterone levels: had no significant effects
  serum testosterone levels: had no significant effects
Male germ cells [1]; single IP, 24 hours, no CP
  spontaneous germ cell apoptosis, peptide alone: did not change the spontaneous germ cell apoptosis
Male germ cells [1]; stages I-IV and XI-XII, HN, HN-C8P 40 mg/kg BW, HNG, HNG-F6A 5 mg/kg BW
  inhibition of (protection against) CP-induced germ cell apoptosis, early+late stages: ~57% and ~60%
Male germ cells [1]; stages VII-VIII, 40 mg/kg BW
  effect on CP-induced germ cell apoptosis, middle stages: not in middle stages
Male germ cells [2]; HN 40 mg/Kg, CP 200 mg/Kg
  germ cell apoptosis in testicular cross sections (TUNEL) compared to control: had no significant effect on germ cell apoptosis
Male germ cells [2]; HN 40 mg/Kg IP about 15 minutes before CP 200 mg/Kg IP, 24 hours
  CP-induced germ cell apoptosis: attenuated the CP-induced germ cell apoptosis
STAT3
  STAT3 phosphorylation (phosphorylated STAT3/STAT3) compared with control: did not change STAT3 phosphorylation
STAT3; with CP 200 mg/Kg
  CP suppressed STAT3 (Ser727) phosphorylation: restored CP-induced Ser 727-phosphorylation of STAT3
Male germ cells [3]; HN 40 mg/kg BW
  germ cell apoptosis at early and late stages in EDS pre-treated rats, addition of HN: did not significantly reduced germ cell apoptosis
Male germ cells [3]; HN 40 mg/kg BW + CP + EDS
  CP effects at early and late stages in EDS pre-treated animals, addition of HN: did not change the CP effects in EDS pre-treated animals
Male germ cells [3]; HN 40 mg/kg BW IP 3 days after EDS
  EDS-induced apoptosis of germ cells, middle stages: significantly reduced the EDS-induced apoptosis of germ cells
Male germ cells [3]; concomitant HN 40 mg/kg BW
  increase in apoptosis in CP+EDS group, middle stages: reduced by concomitant HN treatment
Male germ cells [3]; rats not pre-treated with EDS, HN 40 mg/kg BW + CP
  apoptosis in CP treated testis, middle (VII-VIII) stages: had no effect on CP treated testis
Male germ cells [3]; rats not pre-treated with EDS, HN 40 mg/kg BW IP + CP 70 mg/kg BW
  CP-induced apoptosis at early and late stages: significantly reduced CP-induced apoptosis
